Ends that are not written are not given here.
How the values were obtained:
C. albicans NCYC1467 = assay: Antimicrobial test (broth microdilution); format: cell-based, Candida albicans; settings: for MIC: MHB, 5 × 10^5 CFU/ml, 37°C overnight, 550 nm
Description: (§1) The antimicrobial activities were tested by the broth microdilution method and evaluated by the determination of MIC values against different tested microorganisms, the Gram-positive bacteria, S. aureus (NCTC 10788), E. faecalis (NCTC12697), and MRSA (NCTC 12493); the Gram-negative bacterium, E. coli (NCTC 10418); and the yeast, C. albicans (NCYC 1467). The microorganisms were cultured to their log phase in MHB and diluted to 5 × 10^5 CFU/ml then subsequently treated with peptide solutions of gradient concentrations. After incubation at 37°C overnight, the growth of microorganisms was detected at a wavelength of 550 nm using a Synergy HT plate reader (Biolise BioTek ELx808, Winooski, VT, USA). The MICs were determined as the lowest concentration of peptide where […].

E. faecalis NCTC12697 = assay: Antimicrobial test (broth microdilution); format: cell-based, Enterococcus faecalis; settings: for MIC: MHB, 5 × 10^5 CFU/ml, 37°C overnight, 550 nm
Description: as §1

S. aureus = assay: Membrane permeability on S. aureus (SYTOX Green); format: cell-based, Staphylococcus aureus; settings: 2 h; for membrane-permeabilising activity on S. aureus: up to 512 μM
Description: The cell membrane permeability of S. aureus was tested with SYTOX Green Nucleic Acid Stain (Life Technologies, Carlsbad, CA, USA). The log-phase S. aureus was pelleted and suspended in 5% TSB in 0.85% NaCl solution to achieve 1 × 10^8 CFU/ml cells which was then treated with peptide solutions at 37°C for 2 h. The maximum membrane-compromised S. aureus was produced by 70% isopropanol treatment. Subsequently, cells were mixed with 5 μM SYTOX Green stain and incubated in the dark for 10 min. The fluorescence was measured in a 37°C Synergy HT plate reader (Biolise BioTek ELx808, Winooski, VT, USA) at excitation and emission wavelengths of 480 nm and 528 nm, respectively. The membrane permeability was calculated as (1) Membrane permeability%=F−F0/F1−F0×100%, where F represents the processed fluorescence intensity with peptide treatments, F0 represents the processed fluorescence intensity of untreated S. aureus, and F1 represents the processed fluorescence intensity in the maximum membrane-compromised S. aureus (70% isopropanol-treated). The fluorescence intensities of background were subtracted prior to calculation.

horse erythrocytes = assay: Haemolytic test; format: cell-based; settings: tested concentrations, horse red blood cells, 37°C, 2 h
Description: The haemolysis of Caeridins was tested on prepared defrinated horse red blood cells (TCS Biosciences Ltd., Buckingham, UK) by incubating equal volumes of peptide solutions with erythrocyte suspensions at 37°C for 2 H. Maximum haemolysis control was included by incubating equal volumes of 1% Triton X-100 (Sigma-Aldrich, St. Louis, MO, USA) with erythrocyte suspensions. Lysis of erythrocytes was detected by the measurement of supernatant absorbance at a wavelength of 550 nm using a Synergy HT plate reader (Biolise BioTek ELx808, Winooski, VT, USA). The level of haemolysis was as calculated as (3) Haemolysis %=A−A0/A1−A0×100%, where A represents the absorbance with peptide treatments, A0 represents the average absorbance in untreated erythrocytes, and A1 represents the average absorbance in the maximum haemolysis control (1% Triton X-100-treated).

MRSA NCTC12493 = assay: Antimicrobial test (broth microdilution); format: cell-based, methicillin-resistant S. aureus; settings: for MIC: MHB, 5 × 10^5 CFU/ml, 37°C overnight, 550 nm
Description: as §1

[1] = test system: human microvascular endothelial cell line HMEC-1; assay: Membrane permeabilisation of HMEC-1 (LDH release); format: cell-based; settings: 24 h; for cytotoxicity to HMEC-1 cells: 100 μM, LDH release; for membrane lysis (LDH release) of HMEC-1: 10^−7 M to 10^−4 M
Description: The membrane permeabilisation of the human microvascular endothelial cell line, HMEC-1, was evaluated using the Pierce LDH Cytotoxicity Assay Kit (Thermo Fisher Scientific, San Francisco, CA, USA). HMEC-1 cells were cultured in MCDB-131 medium (Life Technology, Paisley, UK) with 10% FBS, 10 ng/ml epidermal growth factor (EGF) (Life Technology, Paisley, UK), 10 mM L-glutamine (Life Technology, Paisley, UK), and 1% penicillin-streptomycin (Sigma-Aldrich, St. Louise, MO, USA), at 37°C under 5% CO2. Cells were seeded in a 96-well plate at 5000 cells per well and cultured overnight to 80% confluency. Then, the cells were treated with different peptide solutions of gradient concentrations from 10^−7 M to 10^−4 M for 24 h at 37°C, 5% CO2, and H2O-treated cells were made as the spontaneous LDH release control. Lysis buffer was added to cells and incubated for 45 min at 37°C, 5% CO2, to produce the lysis buffer-treated cells which were referred to as maximum LDH release control. Then 50 μl of each sample supernatant was transferred to a 96-well flat-bottom plate in triplicate wells, to which 50 μl of reaction mixture was added, incubated, and protected from light at room temperature for 30 min. After addition of 50 μl Stop Solution to each sample well and removal of bubbles present in sample wells, the absorbance at 490 nm and 680 nm was measured. The absorbance values at 680 nm were subtracted from the absorbance values at 490 nm before calculation of the level of LDH release (cytotoxicity). The level of LDH release was calculated as (2) LDH release %=L−L0/L1−L0×100%, where L refers to sample-treated LDH activity, L0 to spontaneous (H2O-treated) LDH activity, and L1 to maximum (lysis buffer-treated) LDH activity.
Data analysis was performed using one-way analysis of variance followed by Dunnett's multiple comparison tests with maximum LDH release control in GraphPad Prism (Version 6.0; GraphPad Software Inc., San Diego, CA, USA).

E. coli = assay: Membrane permeability on E. coli (ONPG / β-galactosidase); format: cell-based, Escherichia coli; settings: ONPG hydrolysis, absorbance 420 nm, 0-30 min, 37°C
Description: The membrane permeabilsation of E.coli was determined by measuring the release of β-galactosidase activity from E. coli into the culture medium with ONPG as the substrate. The log-phase E. coli was grown in MHB medium containing 2% lactose at 37°C, and the cells were pelleted. The cell pellets were suspended in 10 mM PBS (pH 7.4) containing 1.5 mM ONPG and diluted to 1 × 10^8 CFU/ml. Aliquots of cells were incubated with different concentrations of peptides at 37°C. Permeabilisation was measured at 420 nm every 2 min from 0 to 30 min, which reflects ONPG influx into the cells working as an indicator of the permeability of the tested peptides.

S. aureus NCTC10788 = assay: Antimicrobial test (broth microdilution); format: cell-based, Staphylococcus aureus; settings: for MIC: MHB, 5 × 10^5 CFU/ml, 37°C overnight, 550 nm
Description: as §1

E. coli NCTC10418 = assay: Antimicrobial test (broth microdilution); format: cell-based, Escherichia coli; settings: for MIC: MHB, 5 × 10^5 CFU/ml, 37°C overnight, 550 nm
Description: as §1

[2] = test system: rat urinary bladder smooth muscle; assay: Rat urinary bladder smooth muscle test; settings: organ bath, 37°C, n = 5
Description: (§2) Female Wistar rats (250–300 g) were euthanized by CO2 asphyxiation followed by cervical dislocation under appropriate Home Office (UK) animal licenses. Full urinary bladder and ileum were carefully removed from the abdomen, then placed in cold Kreb's solution (118 mM NaCl, 4.7 mM KCl, 25 mM NaHCO3, 1.15 mM NaH2PO4, 2.5 mM CaCl2, 1.1 mM MgCl2, and 5.6 mM glucose), equilibrated with a carbogen mixture (95% O2, 5% CO2). The prepared smooth muscles linked with transducers were placed in 2 ml capacity organ baths with Kreb's solution flowing through at 2 ml/min and maintained at 37°C with constant bubbling of carbogen gas mixture (95% O2, […]) and equilibrated for 1 h prior to analysis. Then the viability of these smooth muscle preparations was tested by 60 mM KCl. Caeridins were tested at sequential molar concentrations in the range from 10^−6 M to 10^−11 M. Dose-response curves were depicted for each Caeridin on individual smooth muscle preparations (n = 5). Changes in tension of the smooth muscle preparations were detected by pressure transducers connected to a PowerLab System (ADInstruments Pty Ltd.). Data were recorded and calculated to obtain the means of responses and standard error of means (SEM). The dose-response curve of each Caeridin was established using best-fit algorithms through the data analysis package provided by GraphPad Prism (Version 6.0; GraphPad Software Inc., San Diego, CA, USA), and the comparative EC50 value for each peptide was depicted.

rat ileum smooth muscle = assay: Rat ileum smooth muscle test; settings: organ bath, 37°C, n = 5
Description: as §2

Compound: CC[C@H](C)[C@H](NC(=O)CN)C(=O)NCC(=O)N[C@@H](C)C(=O)N[C@H](C(=O)N[C@@H](CC(C)C)C(=O)N[C@@H](CCCCN)C(=O)N[C@H](C(=O)N[C@@H](CC(C)C)C(=O)N[C@H](C(=O)N[C@H](C(=O)NCC(=O)N[C@@H](CC(C)C)C(=O)N1CCC[C@H]1C(=O)N[C@@H](C)C(=O)N[C@@H](CC(C)C)C(=O)N[C@H](C(=O)N[C@@H](CO)C(=O)N[C@@H](Cc1c[nH]c2ccccc12)C(=O)N[C@H](C(=O)N[C@@H](CCCCN)C(=O)N[C@@H](CCCNC(=N)N)C(=O)N[C@@H](CCCCN)C(=O)N[C@@H](CCCNC(=N)N)C(=O)N[C@@H](CCC(N)=O)C(=O)N[C@@H](CCC(N)=O)C(N)=O)[C@@H](C)CC)[C@@H](C)CC)[C@@H](C)O)[C@@H](C)O)C(C)C)C(C)C [Melittin, reference compound]
- MFC (C. albicans NCYC1467): 8 µM
- MIC (E. faecalis NCTC12697): 2 µM
- membrane permeability of S. aureus at MBC (S. aureus; peptide at its MBC, 37°C, 1 × 10^8 CFU/ml, relative to 70% isopropanol): 100%
- membrane permeability of S. aureus at MIC (S. aureus; peptide at its MIC, 37°C, 1 × 10^8 CFU/ml, relative to 70% isopropanol): approximately 50%
- haemolytic activity (horse erythrocytes): eminent haemolysis from 1 μM
- MBC (MRSA NCTC12493): 4 µM
- MIC (MRSA NCTC12493): 2 µM
- LDH release from HMEC-1 ([1]; 0.1 μM, relative to lysis buffer): approximately 10%
- cytotoxicity to HMEC-1 cells [1]: significant cytotoxicity
- membrane permeabilisation of E. coli at MIC and MBC (E. coli; 1 × 10^8 CFU/ml, PBS pH 7.4): higher absorbance at 420 nm

Compound: GLLDGLLGTLGL-NH2 [Caeridin-1]
- MBC (S. aureus NCTC10788): > 512 µM
- MIC (S. aureus NCTC10788): > 512 µM
- MFC (C. albicans NCYC1467): > 512 µM
- MIC (C. albicans NCYC1467): > 512 µM
- MBC (E. faecalis NCTC12697): > 512 µM
- MIC (E. faecalis NCTC12697): > 512 µM
- membrane-permeabilising activity on S. aureus (S. aureus): barely showed membrane-permeabilising activity
- haemolytic activity (horse erythrocytes): weak haemolytic activities
- MBC (E. coli NCTC10418): > 512 µM
- MIC (E. coli NCTC10418): > 512 µM
- MBC (MRSA NCTC12493): > 512 µM
- MIC (MRSA NCTC12493): > 512 µM
- cytotoxicity to HMEC-1 cells [1]: weak cytotoxicity
- membrane lysis (LDH release) of HMEC-1 ([1]; relative to lysis buffer): lower than 5%
- membrane permeabilisation of E. coli at maximum tested concentration (E. coli): failed to induce membrane permeabilisation
- maximum contraction effect on bladder smooth muscle preparations [2]: 0.3 g
- EC50 ([2]; Kreb's solution, 10^−11 to 10^−6 M, read-out: EC50 inducing rat bladder smooth muscle contractions): 5.6 nM

Compound: N2H-GLLDSLLGGLGL-CONH2 [S5-Caeridin-1, novel Caeridin peptide from Litoria caerulea skin secretion, synthetic replicate, C-terminally amidated]
- MBC (S. aureus NCTC10788): > 512 µM
- MIC (S. aureus NCTC10788): > 512 µM
- MFC (C. albicans NCYC1467): > 512 µM
- MIC (C. albicans NCYC1467): > 512 µM
- MBC (E. faecalis NCTC12697): > 512 µM
- MIC (E. faecalis NCTC12697): > 512 µM
- membrane-permeabilising activity on S. aureus (S. aureus): barely showed membrane-permeabilising activity
- haemolytic activity (horse erythrocytes): weak haemolytic activities
- MBC (E. coli NCTC10418): > 512 µM
- MIC (E. coli NCTC10418): > 512 µM
- maximum relaxant effect on ileum smooth muscle preparations (rat ileum smooth muscle): 0.2 g
- EC50 (rat ileum smooth muscle; Kreb's solution, 10^−11 to 10^−6 M, read-out: EC50 causing rat ileum smooth muscle relaxations): 9.5 nM
- MBC (MRSA NCTC12493): > 512 µM
- MIC (MRSA NCTC12493): > 512 µM
- cytotoxicity to HMEC-1 cells [1]: weak cytotoxicity
- membrane lysis (LDH release) of HMEC-1 ([1]; relative to lysis buffer): lower than 5%
- membrane permeabilisation of E. coli at maximum tested concentration (E. coli): failed to induce membrane permeabilisation

Compound: RPPGFSPFR [Bradykinin, reference compound] [listing 1 of 2 here]
- MBC (S. aureus NCTC10788): > 512 µM
- MIC (S. aureus NCTC10788): > 512 µM
- MFC (C. albicans NCYC1467): > 512 µM
- MIC (C. albicans NCYC1467): > 512 µM
- MBC (E. faecalis NCTC12697): > 512 µM
- MIC (E. faecalis NCTC12697): > 512 µM
- membrane-permeabilising activity on S. aureus (S. aureus): barely showed membrane-permeabilising activity
- MBC (E. coli NCTC10418): > 512 µM
- MIC (E. coli NCTC10418): > 512 µM
- MBC (MRSA NCTC12493): > 512 µM
- MIC (MRSA NCTC12493): > 512 µM
- membrane permeabilisation of E. coli at maximum tested concentration (E. coli): failed to induce membrane permeabilisation

Compound: RPPGFSPFR [Bradykinin, reference compound] [listing 2 of 2 here]
- haemolytic activity (horse erythrocytes): weak haemolytic activities
- cytotoxicity to HMEC-1 cells [1]: weak cytotoxicity
- membrane lysis (LDH release) of HMEC-1 ([1]; relative to lysis buffer): lower than 5%

— publication PMC6079455, “Discovery of Novel Caeridins from the Skin Secretion of the Australian White's Tree Frog, Litoria caerulea” (International Journal of Genomics, 2018)
